Here are results for seven compounds from PMC3448830 (Bioorganic & medicinal chemistry, 2012).

Each structure is given as a SMILES string.

The conditions of data set [1]: following chronic administration; cited from earlier work.
The target of another data set is GABA-AT (Sus scrofa, UniProt P80147). Put plainly: Substrate activity for GABA-AT. It counts as biochemical, pig. As to conditions: for Km: substrate, Hanes-Woolf plots, pH 8.5, room temperature, 16 h.
GABA-AT, sequence (P80147 29-500): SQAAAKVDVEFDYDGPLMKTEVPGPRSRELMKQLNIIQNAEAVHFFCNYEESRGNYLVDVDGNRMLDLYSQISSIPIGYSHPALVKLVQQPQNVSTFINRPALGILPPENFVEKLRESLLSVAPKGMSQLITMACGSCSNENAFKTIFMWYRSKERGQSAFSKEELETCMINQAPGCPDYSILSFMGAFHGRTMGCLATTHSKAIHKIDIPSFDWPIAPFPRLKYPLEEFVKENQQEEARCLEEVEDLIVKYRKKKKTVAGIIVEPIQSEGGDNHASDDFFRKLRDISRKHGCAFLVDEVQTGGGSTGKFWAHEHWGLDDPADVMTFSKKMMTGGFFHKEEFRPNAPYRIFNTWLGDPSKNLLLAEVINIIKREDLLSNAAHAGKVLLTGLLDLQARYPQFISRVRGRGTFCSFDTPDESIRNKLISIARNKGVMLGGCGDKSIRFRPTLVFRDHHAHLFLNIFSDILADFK

As for `C=CC(N)CCC(=O)O` (centres unmarked) [Compound 1, 4-aminohex-5-enoic acid], the “patients exhibiting irreversible abnormalities in peripherial vision” value in data set [1] is given as 25–50%.

With `Cl.NCc1cscc1C(=O)O` [Compound 6b, 4-(Aminomethyl)thiophene-3-carboxylic acid hydrochloride], on GABA-AT, the “substrate activity (transamination)” value was “Transamination was observed” and the Km was greater than 10 mM. On to `Cl.NCc1ccc(C(=O)O)o1` [Compound 4a, 5-(Aminomethyl)furan-2-carboxylic acid hydrochloride], for which, on GABA-AT (substrate efficiency), the kcat/Km entry is listed as “highest kcat/Km value”. As for `Cl.NCc1coc(C(=O)O)c1` [Compound 5a, 4-(Aminomethyl)furan-2-carboxylic acid hydrochloride], on GABA-AT (relative to GABA), the “Km, fold lower than that of GABA” value was “approximately 4 fold”. Turning to `Cl.NCc1ccc(C(=O)O)s1` [Compound 4b, 5-(Aminomethyl)thiophene-2-carboxylic acid hydrochloride], on GABA-AT, the Km entry is recorded as “much higher”. Same read-out and setting: the value for `Cl.NCc1ccc(C(=O)O)[nH]1` [Compound 4c] was “much higher”. On to `Cl.[2H]C([2H])(N)c1coc(C(=O)O)c1` [[D2]-5a], for which, on GABA-AT ([D2]-5a evaluated alongside unlabeled 5a), the “^Hk/^Dk for substrate turnover (kinetic isotope effect)” value amounted to 1.22 ± 0.07.

As a reminder, the Km is the concentration of substrate that gives half-maximal velocity.
